Data from ChEMBL document CHEMBL1201862, “PubChem BioAssay data set” (2004).
Where a name gives a salt, the structure may show the parent alone. The source made the active and inactive calls.

Experiments:
[1] = glucagon-like peptide-1 release potency in STC-1, concentration-response, half-maximal inhibitory concentration in the STC-1 line (AID 1117345); type: functional, cell-based
[2] = Potency on glucagon-like peptide 1 release, dose-response in NCI-H716 cell line, half maximal inhibitory concentration (AID 1117344); type: functional, cell-based
[3] = tested on: Streptococcus sp. 'group A'; test: Streptococcus pyogenes SK(-)GAS viability under kanamycin – luminescence, BacTiterGlo, confirmation, counter-screen for streptokinase expression inhibitor project, dose response (AID 1900); type: functional, organism-based
[4] = target: T1, Heat shock factor protein 1 (Mus musculus, UniProt P38532); test: decrease of HSF1-responsive luciferase luminescence – cell-based, NIH3T3, dose retest, confirmation (AID 2382); type: functional;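 also: NIH3T3 fibroblasts with HSF1-driven luciferase reporter stressed by proteasome inhibitor MG132; luminescence from HSF1-driven luciferase expression after 8 hours of MG132 stress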
T1 sequence (P38532 whole entry): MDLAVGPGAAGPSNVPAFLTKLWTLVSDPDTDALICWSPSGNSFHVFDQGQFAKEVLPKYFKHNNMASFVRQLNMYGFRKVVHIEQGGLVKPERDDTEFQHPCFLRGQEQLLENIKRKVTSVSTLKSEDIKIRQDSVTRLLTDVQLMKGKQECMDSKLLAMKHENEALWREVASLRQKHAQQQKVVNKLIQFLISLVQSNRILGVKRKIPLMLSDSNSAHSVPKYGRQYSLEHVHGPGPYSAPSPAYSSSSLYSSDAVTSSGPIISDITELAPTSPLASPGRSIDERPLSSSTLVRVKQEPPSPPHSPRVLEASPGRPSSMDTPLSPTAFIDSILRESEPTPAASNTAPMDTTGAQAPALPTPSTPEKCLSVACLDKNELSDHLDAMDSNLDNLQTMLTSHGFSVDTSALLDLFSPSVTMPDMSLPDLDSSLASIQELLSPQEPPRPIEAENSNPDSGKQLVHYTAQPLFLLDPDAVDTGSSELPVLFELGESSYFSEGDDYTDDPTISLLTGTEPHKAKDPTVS

[5] = target: T2, Streptokinase A (Streptococcus pyogenes serotype M1, UniProt P10520); test: viability-normalized secreted streptokinase activity reduction – plasminogen activation absorbance, OD405, dose response (AID 1914); type: functional, Streptococcus pyogenes M1 GAS;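 also: secreted streptokinase activity via plasminogen activation per viability signal from cell pellet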
T2 sequence (P10520 whole entry): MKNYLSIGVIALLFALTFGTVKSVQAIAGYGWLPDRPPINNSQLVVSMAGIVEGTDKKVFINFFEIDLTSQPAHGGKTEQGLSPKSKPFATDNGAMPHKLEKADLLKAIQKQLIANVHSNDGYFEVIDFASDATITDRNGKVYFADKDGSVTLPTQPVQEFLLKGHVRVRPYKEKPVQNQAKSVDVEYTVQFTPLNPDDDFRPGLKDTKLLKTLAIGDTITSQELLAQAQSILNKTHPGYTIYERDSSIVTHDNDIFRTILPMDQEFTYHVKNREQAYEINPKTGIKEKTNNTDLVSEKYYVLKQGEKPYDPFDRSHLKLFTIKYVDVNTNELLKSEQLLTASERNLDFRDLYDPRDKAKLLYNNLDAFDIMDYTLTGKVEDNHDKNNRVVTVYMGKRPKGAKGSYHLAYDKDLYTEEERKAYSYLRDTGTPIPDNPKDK

[6] = tested on: Streptococcus; test: GAS UMAA2166 growth inhibition – luminescence, BacTiterGlo, counter-screen for streptokinase expression inhibitor project, dose response (AID 1915); type: functional, organism-based;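 also: potency for reduction of bacterial viability or growth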
[7] = viability loss in Vero cells – cytotoxicity control for Vif-APOBEC3G degradation inhibitor project, dose response (AID 1117358); type: functional; settings: Vero
[8] = target: Diphosphomevalonate decarboxylase (Streptococcus pneumoniae serotype 2 (strain D39 / NCTC 7466), UniProt Q9FD53); test: diphosphomevalonate decarboxylase inhibitor confirmation – biochemical, cuvette format, coupled NADH fluorescence (AID 1028); type: functional
[9] = target: E3 ubiquitin-protein ligase Mdm2 (Homo sapiens, UniProt Q00987); test: MDM2-luc reporter signal enhancers, multi-concentration potency testing, MDM2 ubiquitin-protein ligase inhibitor program, whole-cell format, luminescence detection, 384-well microplate (AID 1394); type: functional;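 also: MDM2 E3 inhibitors raise luminescence so EC50 is for signal enhancement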
[10] = HIV-1 Vif–A3G interaction blockers – biochemical, TR-FRET, GST-Vif 1-94, biotin-A3G peptide, dose response retest, primary screen (AID 1117319); type: functional;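 also: TR-FRET signal of purified GST-Vif binding a biotinylated A3G peptide; inhibitors lower the FRET signal by blocking Vif and A3G binding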

Sequence of Diphosphomevalonate decarboxylase (Q9FD53 whole entry): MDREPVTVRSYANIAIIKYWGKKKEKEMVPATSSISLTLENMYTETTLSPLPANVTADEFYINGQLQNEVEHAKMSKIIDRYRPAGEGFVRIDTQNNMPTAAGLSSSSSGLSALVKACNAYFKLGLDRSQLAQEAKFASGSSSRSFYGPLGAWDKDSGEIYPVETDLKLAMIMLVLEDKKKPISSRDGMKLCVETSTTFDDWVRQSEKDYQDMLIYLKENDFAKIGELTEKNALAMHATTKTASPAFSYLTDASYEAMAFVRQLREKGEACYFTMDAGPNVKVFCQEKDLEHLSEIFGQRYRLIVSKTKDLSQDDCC
Sequence of E3 ubiquitin-protein ligase Mdm2 (Q00987 whole entry): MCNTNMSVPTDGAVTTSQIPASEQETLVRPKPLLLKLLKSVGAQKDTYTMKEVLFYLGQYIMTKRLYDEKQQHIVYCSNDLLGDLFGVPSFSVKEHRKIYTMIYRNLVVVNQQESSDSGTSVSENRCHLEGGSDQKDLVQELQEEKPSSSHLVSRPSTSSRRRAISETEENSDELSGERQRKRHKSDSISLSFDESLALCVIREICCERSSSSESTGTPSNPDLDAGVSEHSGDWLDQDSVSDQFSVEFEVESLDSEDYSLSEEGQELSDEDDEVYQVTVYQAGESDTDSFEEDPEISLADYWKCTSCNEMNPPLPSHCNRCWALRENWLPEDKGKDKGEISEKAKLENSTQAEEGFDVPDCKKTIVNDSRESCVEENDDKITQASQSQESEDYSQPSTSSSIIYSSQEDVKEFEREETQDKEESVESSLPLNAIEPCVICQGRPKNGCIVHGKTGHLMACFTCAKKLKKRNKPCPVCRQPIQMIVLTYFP

## CCN(CC)CCOC(=O)C(Cc1cccc2ccccc12)CC1CCCO1 (stereo not given) [NAFRONYL OXALATE]
[1]
  IC50: > 40 µM (inactive)
[2]
  IC50: > 40 µM (inactive)

## O=C(NC(=S)N1CCN(c2c(Cl)cccc2[N+](=O)[O-])CC1)c1cccs1
[3]
  EC50: 4.51 µM (active)
[4]
  EC50: > 195 µM (not active)
[5]
  EC50: > 150 µM (not active)
[6]
  EC50: 10.2 µM (active)
[7]
  CC50: > 40 µM (active)

## O=C(NCCN1CCCC1)c1ccc(-n2sc3ccccc3c2=O)cc1
[8]
  IC50: 33 µM (active)

## Cc1nn(-c2nnc(NCc3ccccc3)nn2)c(C)c1Br
[9]
  EC50: 13.3 µM (not active)

## COc1cc(O)oc1/C=N/c1ccccc1
[10]
  IC50: > 100 µM (active)
